In patent publication US20250052765A1, “Nanobody Discovery Platform and Related Methods” (Carnegie Mellon University, priority 2021, published 2025):

How the values were obtained:
LaG18/GFP strain = settings: 300 nM TD during cell culture; bleached for 90 sec at 525 nm
Protocol: Flow cytometer histograms of LaG18/GFP strain labeled during cell culture with 300 nM TD. Mean values are shown; unbleached (red), bleached for 90 sec at 525 nm (blue), and unlabeled control cells (orange).

Protocol for NB/TPD complexes: Green numbers are NB-gFAP signal; red numbers are TPD-rFAP signals. In vivo, cells treated with 300 nM TD during 3-day cell culture; in vitro, cells treated with TD after harvest in assay buffer for 4 hours.
The green emitting fluorogen activating protein (gFAP) is genetically fused using GG assembly 3′ to each NB (NB-gFAP) where the gFAP may be ScFvl or AM2-2; the red emitting FAP (rFAP) is fused 3′ to each TPD (TPD-rFAP) where the rFAP is dL5. […] If co-expressed NB and TPD specifically bind one another, the TPD-rFAP will be captured on the surface of the co-expressing cell. However, its residence will be finite as determined by the binding affinity of the NB/TPD complex; most of the TPD-rFAP will be lost into the medium over the 3 day period of cell culture. […] This enables quantitative self-reporting of the presence of the NB/TPD complex as a ratio of red to green fluorescence. FACS will then be used to isolate cells displaying the complex.
The secreted ectodomain TPD-rFAP fusions are initially sequestered within the yeast periplasmic space and/or inner cell wall, and upon buffer treatment released to outer cell surface over the course of a few hours (FIG. 22). […] A second feature of TDs is that they can be successfully applied to cells post-harvest instead of the usual inclusion of TDs in growth medium for 3 days.

In the case of sulfonate TO1-PEG3500-MG, the “loss of rFAP/MG (TPD) signal after bleaching TO1 end of TD” value (LaG18/GFP strain) is reported as “about half of the rFAP/MG signal is lost” and the “binding affinities of NB/TPD complexes efficiently locked/captured on the yeast cell surface” value (NB/TPD complexes) is reported as ≤ 20 µM.
